Experimental data: US9512481B2, “Polymorphisms in the PDE3A gene” (The Regents of the University of Colorado, a body corporate, priority 2009, dated 2016)

How the values were obtained:
[1] = system: Evi-1
[2] = system: PDE3A promoter; assay: PDE3A Ins or Del promoter-luciferase constructs transfected into NRVMs; format: cell-based, rat; conditions: for promoter response: Del construct with deletion of the CREB binding site (CRE) at −1070, NRVMs; for promoter (transcriptional) activity: NRVMs
[3] = system: Evi-1 transcription factor mRNA; assay: Evi-1 mRNA expression in explanted left ventricular samples from heart failure patients treated with enoximone; format: in vivo, human; conditions: explanted LV samples from HF patients treated with enoximone; compared to non-failing, no enoximone
[4] = system: PDE3A mRNA; assay: PDE3A mRNA abundance in LVs explanted from end-stage HF patients, by PDE3A promoter Ins/Del genotype; format: in vivo, human

Nc1ncnc2c1ncn2[C@@H]1O[C@@H]2COP(=O)(O)O[C@H]2[C@H]1O [cAMP, cyclic AMP]
induction of Evi-1 [1]: 16 fold

CCCC(=O)Nc1ncnc2c1ncn2[C@@H]1O[C@@H]2COP(=O)(O)O[C@H]2[C@H]1OC(=O)CCC [dbcAMP]
promoter response [2]: abolishes the promoter response

CSc1ccc(C(=O)c2[nH]c(=O)[nH]c2C)cc1 [enoximone]
mRNA expression of Evi-1 [3]: increased
PDE3A mRNA abundance ([4]; Del carriers (homozygous or heterozygous for PDE3A Del, n=9) treated with enoximone, compared to Del patients not receiving enoximone (n=19), p<0.001): 2.1±0.3 fold
PDE3A gene expression ([4]; patients homozygous for the Ins (Ins/Ins) treated with enoximone, p=0.7): 1.1±0.3 fold
promoter response [2]: abolishes the promoter response

CC(C)NCC(O)c1ccc(O)c(O)c1 (centres unmarked) [isoproterenol]
promoter (transcriptional) activity ([2]; Del PDE3A promoter-luciferase construct (lacks the 29 nucleotide sequence)): increased promoter activity
promoter (transcriptional) activity ([2]; Ins PDE3A promoter-luciferase construct (29 nucleotide sequence present)): does not go up
